# ChEMBL document CHEMBL5316308, “BET-HDAC Dual Inhibitors for Combinational Treatment of Breast Cancer and Concurrent Candidiasis” (J Med Chem, 2023)
# Active and inactive are the calls of the source. The rule behind the calls is not given here.
# Legend:
# MDA-MB-231 [1] = assay: Upregulation of acetyl-H3 level in human MDA-MB-231 cells incubated for 24 hrs by Western blot analysis; type: functional, cell-based; details: dose 0.2-5 µM
# K562 = assay: Antiproliferative activity against human K562 cells assessed as cell growth inhibition incubated for 24 hrs by CCK-8 assay; type: functional, cell-based; details: K562, 24 h
# [2] = target: Bromodomain-containing protein 4 (Homo sapiens, UniProt O60885); assay: Inhibition of recombinant BRD4 (unknown origin) incubated for 120 mins by TR-FRET assay relative to control; parameters: concentration or dose not given beside the values
# HEL = assay: Antiproliferative activity against human HEL cells assessed as cell growth inhibition incubated for 24 hrs by CCK-8 assay; type: functional, cell-based
# Candida albicans [3] = assay: Synergistic antifungal activity against azole-resistant Candida albicans 0304103 assessed as fungal growth inhibition at 32 ug/ml measured upto 24 hrs in presence of 1 to 4 ug/ml FLC by absorbance based assay; type: functional, organism-based; details: dose 32.0 µg/ml
# Candida albicans [4] = assay: microbe, parasite or virus in culture; type: functional; details: 0304103, time 48 hrs
# Description: Synergistic antifungal activity against azole-resistant Candida albicans 0304103 assessed as fungal growth inhibition measured after 48 hrs in presence of FLC by CLSI based micro-dilution broth method
# [5] = target: Bromodomain-containing protein 3 (Homo sapiens, UniProt Q15059); assay: Inhibition of recombinant BRD3 BD1 (unknown origin) incubated for 120 mins by TR-FRET assay
# Chain of Bromodomain-containing protein 3 (Q15059 whole entry): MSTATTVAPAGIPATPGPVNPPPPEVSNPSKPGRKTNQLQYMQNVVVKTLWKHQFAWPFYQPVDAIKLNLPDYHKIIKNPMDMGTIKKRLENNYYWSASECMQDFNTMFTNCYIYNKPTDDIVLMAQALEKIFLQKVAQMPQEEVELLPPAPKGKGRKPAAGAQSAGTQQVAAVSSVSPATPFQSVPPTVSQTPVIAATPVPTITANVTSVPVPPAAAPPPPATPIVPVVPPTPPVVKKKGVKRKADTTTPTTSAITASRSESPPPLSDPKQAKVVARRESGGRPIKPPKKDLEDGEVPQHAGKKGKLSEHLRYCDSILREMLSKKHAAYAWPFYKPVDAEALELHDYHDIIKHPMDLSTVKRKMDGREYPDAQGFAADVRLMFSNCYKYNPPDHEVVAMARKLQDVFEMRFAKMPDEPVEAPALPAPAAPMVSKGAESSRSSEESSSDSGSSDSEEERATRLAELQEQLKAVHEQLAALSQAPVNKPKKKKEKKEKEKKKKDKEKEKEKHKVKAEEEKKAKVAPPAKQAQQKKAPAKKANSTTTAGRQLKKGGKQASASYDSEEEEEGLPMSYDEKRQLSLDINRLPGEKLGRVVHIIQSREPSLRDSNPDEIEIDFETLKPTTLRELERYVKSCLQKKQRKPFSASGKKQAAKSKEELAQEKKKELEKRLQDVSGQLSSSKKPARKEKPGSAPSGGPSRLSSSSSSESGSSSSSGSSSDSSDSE
# [6] = target: Bromodomain testis-specific protein (Homo sapiens, UniProt Q58F21); assay: Inhibition of recombinant BRDT BD1 (unknown origin) incubated for 120 mins by TR-FRET assay
# Histone deacetylase 3 = Histone deacetylase 3 (Homo sapiens, UniProt O15379); assay: Inhibition of His-tagged recombinant human HDAC3 expressed in baculovirus infected insect cells using Ac-Leu-Gly-Lys(Ac)-AMC as substrate incubated for 30 mins by fluorescence based assay; parameters: species or system Insect cell
# Chain of Histone deacetylase 3 (O15379 whole entry): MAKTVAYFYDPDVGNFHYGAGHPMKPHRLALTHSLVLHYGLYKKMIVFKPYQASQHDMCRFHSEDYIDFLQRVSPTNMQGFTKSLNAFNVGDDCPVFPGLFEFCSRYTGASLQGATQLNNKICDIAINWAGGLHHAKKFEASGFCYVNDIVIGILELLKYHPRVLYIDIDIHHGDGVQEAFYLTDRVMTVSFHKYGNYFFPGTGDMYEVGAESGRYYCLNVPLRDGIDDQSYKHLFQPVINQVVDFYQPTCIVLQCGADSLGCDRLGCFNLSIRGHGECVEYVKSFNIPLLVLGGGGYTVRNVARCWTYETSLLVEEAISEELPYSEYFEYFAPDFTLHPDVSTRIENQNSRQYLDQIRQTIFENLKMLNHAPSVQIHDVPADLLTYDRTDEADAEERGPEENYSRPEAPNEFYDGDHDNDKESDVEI
# MDA-MB-231 [7] = assay: Antitumor activity against human MDA-MB-231 cells xenografted in Balb/c nude mouse assessed as tumor growth inhibition at 10 mg/kg, ip qd for 21 consecutive days relative to control; type: functional; details: MDA-MB-231, 480 h, time 20 day, read-out: TGI
# [8] = Metabolic stability in ICR mouse liver microsome assessed as clearance; type: ADME; details: liver microsomes, read-out: CLH
# Histone deacetylase 2 = Histone deacetylase 2 (Homo sapiens, UniProt Q92769); assay: Inhibition of C-terminal GST-tagged full-length recombinant human HDAC2 expressed in baculovirus infected Sf9 insect cells using Ac-Leu-Gly-Lys(Ac)-AMC as substrate incubated for 30 mins by fluorescence based assay; type: cell-based
# Chain of Histone deacetylase 2 (Q92769 whole entry): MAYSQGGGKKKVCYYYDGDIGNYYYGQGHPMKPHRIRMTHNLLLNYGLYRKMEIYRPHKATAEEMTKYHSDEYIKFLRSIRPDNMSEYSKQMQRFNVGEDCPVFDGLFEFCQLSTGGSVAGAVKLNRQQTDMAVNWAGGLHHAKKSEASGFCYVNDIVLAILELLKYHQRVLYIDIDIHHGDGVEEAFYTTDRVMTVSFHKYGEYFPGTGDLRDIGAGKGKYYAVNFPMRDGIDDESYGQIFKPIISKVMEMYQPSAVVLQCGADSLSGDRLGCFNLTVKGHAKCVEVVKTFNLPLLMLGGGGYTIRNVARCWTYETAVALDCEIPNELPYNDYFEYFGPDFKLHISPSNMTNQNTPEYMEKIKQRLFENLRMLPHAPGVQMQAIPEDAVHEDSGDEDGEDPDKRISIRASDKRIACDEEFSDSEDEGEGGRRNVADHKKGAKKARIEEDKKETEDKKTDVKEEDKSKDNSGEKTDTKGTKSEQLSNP
# MDA-MB-231 [9] = assay: Induction of apoptosis in human MDA-MB-231 cells assessed as late apoptotic cells at 2.5 uM incubated for 48 hrs by Annexin V-FITC/PI staining based flow cytometry relative to control; type: functional
Structure (SMILES),Activity (MDA-MB-231 [1]),IC50 (K562) [µM],inhibition [2] [%],IC50 (HEL) [µM],Activity (Candida albicans [3]),MIC80 (Candida albicans [4]) [µg/mL],IC50 [5] [µM],IC50 [6] [µM],IC50 (Histone deacetylase 3) [µM],inhibition in vivo at 10 mg/kg (MDA-MB-231 [7]) [%],CLint scaled [8] [mL/min/kg],IC50 (Histone deacetylase 2) [µM],Activity (MDA-MB-231 [9]) [%]
COc1cc2c(cc1-c1c(C)noc1C)[nH]c1ncnc(NCCCCCCC(=O)NO)c12,Dose-Dependent Effect,2.5,93.7,3.9,Active,0.5,0.113,0.221,0.161,64.9,103,0.152,25.19
COc1cc2c(cc1-c1c(C)noc1C)[nH]c1nc(C)nc(NCCCCCCC(=O)NO)c12,Dose-Dependent Effect,2.5,91.7,0.9,Active,8,2.59,1.11,0.213,67.9,285,0.085,8.35
